US11147219B2, “Methods and systems for growing plants using silicate-based substrates, cultivation of enhanced photosynthetic productivity and photosafening by utilization of exogenous glycopyranosides for endogenous glycopyranosyl-protein derivatives, and formulations, process and systems for the same” (Innovation Hammer, LLC, priority 2011, dated 2021)
Several values for one entry are separate records, joined by “and”; a condition that tells them apart may be missing. Equal values may be shown once.

How the values were obtained:
Format in all cases: in vivo
[1] = system: radish "Cherry Bell" Raphanus sativus L.; assay: Greenhouse foliar treatment of radish, root dry weight
Experimental: Plant responses to formulations of an alkyl-α-D-mannopyranose and an electron donating-aryl-α-D-mannopyranose were consistent with preferred binding tendencies to displace glucose from storage. Plants were maintained in automated greenhouses controlled for temperature, light and circulation. Environmental conditions during the course of the studies averaged 13:11 hour L:D photoperiod, 25°:20° C. day:night and 20% to 80% relative humidity. Sunlight was supplemented with electrical illumination to achieve photosynthetically active radiation levels ranging from 350 to 600 μmol photons·m^−2·s^−1 at the level of the phylloplane. Solutions for treated and control plants were applied within an hour, otherwise subjecting all plants to identical conditions consistent with good laboratory practices. Solutions applied to controls included nutrients and surfactants identical to the treatment solution, but without the active compound. General supplementation of foliar formulations included the following: 10-100 mM ammonium salt; 1-6 ppm manganese, Mn-EDTA; and 5-10 ppm calcium, Ca-EDTA. For example, foliar solutions of 0.3 mM p-aminophenylmannopyranoside, hereafter referred to as APM, were supplemented with 23 mM ammonium sulfate, (NH4)2SO4, 3 ppm Mn and 6 ppm Ca; and Nutrient Control contained 23 mM (NH4)2SO4, 3 ppm Mn and 6 ppm Ca. The foliar concentrations of Mn and Ca were higher than those specified previously because of the low volumes of foliar applications relative to hydroponic root immersion volumes, and they were particularly effective in combination with foliar applications of compounds because they supported high rates of productivity in the treated plants without phytotoxicity. Compounds for experimentation included the following: methyl-α-D-mannopyranoside (MeM), APM, and methyl-α-D-glucopyranoside (MeG). All foliar solutions were formulated with 1 gm/liter surfactant blend consisting of 0.5 gram DowCorning Q5211 dispersed into 1.5 grams BASF Pluronic L62. As a matter of course, untreated controls that foliar nutrients and wetting agents were not introducing artifacts. The standard volume for foliar application of experimental treatments was 200 liters/hectare. Identical volumes of foliar spray per tray of plant cultures were applied mechanically in a single pass. Controls were placed in the same location and given identical irrigation and handling as the treated plants. To compare the effects of treatments under tightly controlled conditions, plants were cultured, harvested, cleaned and weighed as per previously described methods. Treated plants were statistically analyzed in comparisons against controls. Each survey population held sufficient replicate sample numbers to make meaningful statistical analyses utilizing SPSS® software. Significance was determined at the 95% confidence interval (CI) of the difference. Counts of population numbers are denoted as “n” values. For experiments, radish “Cherry Bell” Raphanus sativus L., a root crop was planted and treated. […] Therefore, least concentrations were selected for statistical experimentation; and 200 l/ha foliar 1 mM MeM or 0.3 mM APM in nutrient-supplemented formulations were applied to 5 cm tall sprouts; while, Nutrient Controls were given foliar applications of identical solutions without the α-D-glycopyranosides; and no foliar solutions were applied to untreated controls which were otherwise identically cultivated and irrigated. For our quantification experiments, when improvements of root productivity over those of nutrient controls were visibly discernible 12 d after treatment, all populations of controls and treatments were harvested, and individual dry weights of treatment and control populations were analyzed.

Radish seedlings = assay: Radish seedling assay, immersion in nutrient solution with α-mannosides
Experimental: Plants were cultured in research facilities and consistency of response to treatments was achieved by supplementation with chelated calcium and manganese. All plants were regularly given modified Hoagland water-culture nutrients. […] Controls were placed in the same location and all plants were given the same irrigation, fertilizers, and handling, but without the experimental compounds. Plants were matched to controls and treated within a week of emergence of cotyledon and true leaves. The performance of compounds was evaluated by comparing means of individual dry weights of shoots and roots. Statistics applied two-tailed Student's t-test with p-values significant within 95% confidence intervals. Counts of populations are “n” values and standard error is denoted “±SE.” Specialty chemicals included the following: tetramethyl-β-D-glucoside (TMG); tetraacetyl-D-glucopyranose (TAG); pentaacetyl-α-D-mannopyranose (MP); p-amino-phenyl-α-D-mannoside (APM); methyl-α-D-mannoside (MeM) and methylglucoside (MeG). MPG was synthesized. 2,3,4,6-tetra-O-acetyl-D-mannopyranose (αβ) was utilized. As required, MP and APM were dissolved in a lower aliphatic alcohol prior to dilution in aqueous media.
Assay—Radish seedlings were treated with α-mannosides after emergence of radicles. Seedlings were matched and transferred to Nutrient Control or treatment solutions. Assays were maintained under environmental conditions as follow: Photosynthetically active radiation 100 μEin·m^−2·sec^−1, diel cycle of 16:8 h light:dark, 26:26° C.

[2] = system: radish (Raphanus sativus L., cultivar "Cherry Bell"); assay: Radish seed germination and seedling growth, nutrient omission media; conditions: glycoside alone, no divalent cations
Experimental: Treatment of seeds and seedlings by aqueous solutions is exemplified by mannosides supplemented with soluble divalent cations in complete mannosides formulations. […] Benefits of such exemplary seed priming methods are as follows: Germination and early growth of radish (Raphanus sativus L., cultivar “Cherry Bell”) and Swiss Chard (Beta vulgaris subspecies cicla L., cultivar “Fordhook® Giant”) were tested for response to α-mannosides supplemented with Ca^2+ and/or Mn^2+. Rapid assays of radish seed germination and growth used hydroponic cultures with no solid medium; longer experiments with Swiss Chard used a 2-5 mm substratum of 700 μm diameter glass microbeads. Neutralization of glass microbeads may be undertaken with dilute mildly acidic solution titrated to pH 6; for example, with mineral acids such as hydrochloric acid, sulfuric acid, nitric acid, and the like; organic acids such as uronic, citric, malic, lactic, salicylic, ascorbic, succinic, oxaloacetic, ketoglutaric, fumaric acids, and amino acids, and the like; artificial biological buffering agents such as TRIS, BIS TRIS, MES, MOPS, HEPES, and the like; fertilizers; and most preferably, phosphates; and the most highly preferred compounds are combinations of compounds in a pH 6-buffer that provide major nutrients for plants, such as MAP with DKP or DAP with MKP; and the like. When test medium was added, the glass microbeads formed an even layer, drawing liquid to the surface by capillary action. Seeds were examined to exclude aberrantly large, small, or damaged seeds, and were placed on the surface of the substratum. For experiments using post-germination seedlings, seeds were germinated in deionized water prior to exposure to nutrient media. A seed with an emerged radicle >1 mm was recorded as germinated, and germinated seeds were counted daily, until 95% germination. There was no visible evidence of either desiccation or waterlogging effects. Glass microbeads were removed by immersion and agitation in water, or manually with fine forceps. Harvested plants were oven-dried to determine dry weight. Treatment and control solutions were prepared by dissolving nutrients in deionized ultrapure water.
Growth media were based on omission or inclusion of glycosides and targeted divalent cations. Triose is the abbreviation for α-1,3-α-1,6 mannotriose) and MEM is methyl-α-D-mannoside. Terminology used herein indicates the omission or inclusion of nutrients: 000=control medium with no glycoside, Ca^2+ or Mn^2+; MeMOO=medium with MeM, but no Ca^2+ or Mn^2+; MeMCaO=medium with MeM and Ca^2+, but no Mn^2+, OCaMn=medium with no MeM, but with Ca^2++Mn^2+; and so on. Similar terminology is used for media containing triose. Results cited are means±SE. […]

[3] = system: Swiss Chard (Beta vulgaris subspecies cicla L., cultivar "Fordhook Giant"); assay: Swiss Chard germination and seedling growth on glass microbead substratum; conditions: media containing 100 μM MeM
Experimental: Treatment of seeds and seedlings by aqueous solutions is exemplified by mannosides supplemented with soluble divalent cations in complete mannosides formulations. […] Benefits of such exemplary seed priming methods are as follows: Germination and early growth of radish (Raphanus sativus L., cultivar “Cherry Bell”) and Swiss Chard (Beta vulgaris subspecies cicla L., cultivar “Fordhook® Giant”) were tested for response to α-mannosides supplemented with Ca^2+ and/or Mn^2+. Rapid assays of radish seed germination and growth used hydroponic cultures with no solid medium; longer experiments with Swiss Chard used a 2-5 mm substratum of 700 μm diameter glass microbeads. […] A seed with an emerged radicle >1 mm was recorded as germinated, and germinated seeds were counted daily, until 95% germination. […]

corn = assay: Corn cultured in 700 μm silicate beads, root treatment; conditions: 1 mM IG
Experimental: Individual plants were started from seeds, bulbs, or vegetative clones, inserted into containers of pre-moistened microbeads. Seedlings included ryegrass and corn; bulbs were of Crocus and paperwhite narcissus; and vegetative cuttings were from Coleus. Seeds generally germinated and were selected according to day of emergence of first roots as control and treatment sets. Roots were treated thereafter.
(§1) Plants were cultivated under controlled environmental conditions as follow: GE Ecolux® plant and aquarium F40T12 fluorescent illumination, photosynthetically active radiation (PAR) of 100 μEin·m^−2·s^−1, diel cycle of 16:8 h light:dark, 28:26° C., 10% to 20% relative humidity. Indoxyl glycopyranoside (IG) was formulated in water and applied and controls were given equal volumes of water without IG. […] Clear plastic 500 cc containers, perforated for drainage, were filled to a depth of 10 cm with up to 900 grams of microbeads each. Initially, basal plates of bulbs were immersed 1 cm into moistened 700 μm nmd silicate beads to initiate rooting. Within a week, first roots emerged and each bulb was treated with 0.1 ml of aqueous 10 mM IG. Controls were treated with addition of 0.1 ml water to their media. After 8 h uptake of the treatments, fertigation resumed in a manner consistent with pH-control. In another case, 0.3 mM 4-amino-phenyl-α-D-mannopyranoside (APM) was dissolved in water with 3 ppm Mn as EDTA, 6 ppm Ca as EDTA. A solution of the formulation was applied to rooted Crocus. APM-treated plants were compared to plants given identical control formulation without APM. Within five hours of treatment and, through fertigation, thereafter, all container cultures were regularly given equal volumes of nutribead solution. Controls were placed side-by-side and cultivated, likewise.
For all experiments, at 7 d to 14 d after treatment, microbeads were saturated with water. Immediately, individual plants gently were pulled and lifted out of the water-saturated silicate microbeads by hand. […] For paperwhites, volumes of entire roots were measured by displacement of water in glass beakers. […]

paperwhite narcissus = assay: Paperwhite narcissus bulbs cultured in 700 μm silicate beads, root treatment; conditions: 16 days after treatment; n=6; p=0.01; controls 30 cc
Experimental: as §1, with “Within five hours of treatment and, through fertigation, thereafter, all container cultures were regularly given equal volumes of nutribead solution. Controls were placed side-by-side and cultivated, likewise.” left out
[…] For paperwhites, volumes of entire roots were measured by displacement of water in glass beakers. […]

Compound | root mean dry weight over the Nutrient Control ([1]; foliar 1 mM with nutrients) | root weight increase over controls ([1]; foliar 1 mM, 200 l/ha, harvest 12 d after treatment, n=72, p=0.001) | active concentration applied for growth response ([1]; foliar, radish) | enhancement of mean dry weight over Nutrient Control (Radish seedlings; 25 μM, 48 h) | mean dry weight of whole plants (Radish seedlings; 25 μM, 48 h) | enhancement of mean dry weight over Nutrient Control (Radish seedlings; 50 μM, 48 h) | mean dry weight of whole plants (Radish seedlings; 50 μM, 48 h) | mean dry weight of whole plants (Radish seedlings; 100 μM, 48 h) | visual comparison with Nutrient Control (Radish seedlings; 500 μM, 24 h) | enhancement of mean dry weight over Nutrient Control (Radish seedlings; 500 μM, 48 h) | mean dry weight of whole plants (Radish seedlings; 500 μM, 48 h) | growth response compared to Nutrient Control (visual) (Radish seedlings; 48 h, 1 mM TAM, 100 μM MP, 25 μM to 500 μM MeM, 10 μM APM) | effect on plant growth / seedling yields without Ca2+ and Mn2+ [2] | germination rates compared with media without the glycoside [3] | taproot total length (corn; after a week, control 5 cm) | dry weight of entire plant (corn; control plant 0.2 g) | dry weight of separated roots (corn; control roots 0.03 g) | mean root volume (paperwhite narcissus)
CO[C@H]1O[C@H](CO)[C@@H](O)[C@H](O)[C@@H]1O [MeM, methyl-α-D-mannopyranoside] | highly significant (n=72; p=0.001) increase | 30% | 1 mM | 12% and ~11% | 10 mg | 11% | 11 mg | 10.9 mg | enhanced pigmentation and general growth | 11% | 10.3 mg | advanced growth responses | no significant effect | consistently higher | – | – | – | –
Indoxyl glycopyranoside [IG] | – | – | – | – | – | – | – | – | – | – | – | – | – | – | 7 cm | 0.3 g | 0.04 g | 37 cc per plant
